We go through eleven compounds from patent publication US20240294545A1 (CSPC Zhongqi Pharmaceutical Technology (Shijiazhuang) Co., …, priority 2020, published 2024).

The target of this test is ATM (Homo sapiens (Human), UniProt Q13315). Description: Caliper mobility shift assay for ATM. The format is biochemical. The following applies: read-out: IC50 of inhibitory activity on ATM kinase. The procedure: 1.2 Determination of the Inhibitory Activities of Compounds on ATM: Caliper Mobility Shift Assay for ATM
To a 96-well plate, 98 μL of DMSO and 2 μL of the 10 mM stock solution were added and mixed evenly so that the concentration of the solution was 200 μM.
Based on the inhibitory rates of the compound at different concentrations, IC50 was calculated according to the formula: Y=Bottom+(Top−Bottom)/(1+(IC50/X)^HillSlope).

ATM, sequence (Q13315 whole entry): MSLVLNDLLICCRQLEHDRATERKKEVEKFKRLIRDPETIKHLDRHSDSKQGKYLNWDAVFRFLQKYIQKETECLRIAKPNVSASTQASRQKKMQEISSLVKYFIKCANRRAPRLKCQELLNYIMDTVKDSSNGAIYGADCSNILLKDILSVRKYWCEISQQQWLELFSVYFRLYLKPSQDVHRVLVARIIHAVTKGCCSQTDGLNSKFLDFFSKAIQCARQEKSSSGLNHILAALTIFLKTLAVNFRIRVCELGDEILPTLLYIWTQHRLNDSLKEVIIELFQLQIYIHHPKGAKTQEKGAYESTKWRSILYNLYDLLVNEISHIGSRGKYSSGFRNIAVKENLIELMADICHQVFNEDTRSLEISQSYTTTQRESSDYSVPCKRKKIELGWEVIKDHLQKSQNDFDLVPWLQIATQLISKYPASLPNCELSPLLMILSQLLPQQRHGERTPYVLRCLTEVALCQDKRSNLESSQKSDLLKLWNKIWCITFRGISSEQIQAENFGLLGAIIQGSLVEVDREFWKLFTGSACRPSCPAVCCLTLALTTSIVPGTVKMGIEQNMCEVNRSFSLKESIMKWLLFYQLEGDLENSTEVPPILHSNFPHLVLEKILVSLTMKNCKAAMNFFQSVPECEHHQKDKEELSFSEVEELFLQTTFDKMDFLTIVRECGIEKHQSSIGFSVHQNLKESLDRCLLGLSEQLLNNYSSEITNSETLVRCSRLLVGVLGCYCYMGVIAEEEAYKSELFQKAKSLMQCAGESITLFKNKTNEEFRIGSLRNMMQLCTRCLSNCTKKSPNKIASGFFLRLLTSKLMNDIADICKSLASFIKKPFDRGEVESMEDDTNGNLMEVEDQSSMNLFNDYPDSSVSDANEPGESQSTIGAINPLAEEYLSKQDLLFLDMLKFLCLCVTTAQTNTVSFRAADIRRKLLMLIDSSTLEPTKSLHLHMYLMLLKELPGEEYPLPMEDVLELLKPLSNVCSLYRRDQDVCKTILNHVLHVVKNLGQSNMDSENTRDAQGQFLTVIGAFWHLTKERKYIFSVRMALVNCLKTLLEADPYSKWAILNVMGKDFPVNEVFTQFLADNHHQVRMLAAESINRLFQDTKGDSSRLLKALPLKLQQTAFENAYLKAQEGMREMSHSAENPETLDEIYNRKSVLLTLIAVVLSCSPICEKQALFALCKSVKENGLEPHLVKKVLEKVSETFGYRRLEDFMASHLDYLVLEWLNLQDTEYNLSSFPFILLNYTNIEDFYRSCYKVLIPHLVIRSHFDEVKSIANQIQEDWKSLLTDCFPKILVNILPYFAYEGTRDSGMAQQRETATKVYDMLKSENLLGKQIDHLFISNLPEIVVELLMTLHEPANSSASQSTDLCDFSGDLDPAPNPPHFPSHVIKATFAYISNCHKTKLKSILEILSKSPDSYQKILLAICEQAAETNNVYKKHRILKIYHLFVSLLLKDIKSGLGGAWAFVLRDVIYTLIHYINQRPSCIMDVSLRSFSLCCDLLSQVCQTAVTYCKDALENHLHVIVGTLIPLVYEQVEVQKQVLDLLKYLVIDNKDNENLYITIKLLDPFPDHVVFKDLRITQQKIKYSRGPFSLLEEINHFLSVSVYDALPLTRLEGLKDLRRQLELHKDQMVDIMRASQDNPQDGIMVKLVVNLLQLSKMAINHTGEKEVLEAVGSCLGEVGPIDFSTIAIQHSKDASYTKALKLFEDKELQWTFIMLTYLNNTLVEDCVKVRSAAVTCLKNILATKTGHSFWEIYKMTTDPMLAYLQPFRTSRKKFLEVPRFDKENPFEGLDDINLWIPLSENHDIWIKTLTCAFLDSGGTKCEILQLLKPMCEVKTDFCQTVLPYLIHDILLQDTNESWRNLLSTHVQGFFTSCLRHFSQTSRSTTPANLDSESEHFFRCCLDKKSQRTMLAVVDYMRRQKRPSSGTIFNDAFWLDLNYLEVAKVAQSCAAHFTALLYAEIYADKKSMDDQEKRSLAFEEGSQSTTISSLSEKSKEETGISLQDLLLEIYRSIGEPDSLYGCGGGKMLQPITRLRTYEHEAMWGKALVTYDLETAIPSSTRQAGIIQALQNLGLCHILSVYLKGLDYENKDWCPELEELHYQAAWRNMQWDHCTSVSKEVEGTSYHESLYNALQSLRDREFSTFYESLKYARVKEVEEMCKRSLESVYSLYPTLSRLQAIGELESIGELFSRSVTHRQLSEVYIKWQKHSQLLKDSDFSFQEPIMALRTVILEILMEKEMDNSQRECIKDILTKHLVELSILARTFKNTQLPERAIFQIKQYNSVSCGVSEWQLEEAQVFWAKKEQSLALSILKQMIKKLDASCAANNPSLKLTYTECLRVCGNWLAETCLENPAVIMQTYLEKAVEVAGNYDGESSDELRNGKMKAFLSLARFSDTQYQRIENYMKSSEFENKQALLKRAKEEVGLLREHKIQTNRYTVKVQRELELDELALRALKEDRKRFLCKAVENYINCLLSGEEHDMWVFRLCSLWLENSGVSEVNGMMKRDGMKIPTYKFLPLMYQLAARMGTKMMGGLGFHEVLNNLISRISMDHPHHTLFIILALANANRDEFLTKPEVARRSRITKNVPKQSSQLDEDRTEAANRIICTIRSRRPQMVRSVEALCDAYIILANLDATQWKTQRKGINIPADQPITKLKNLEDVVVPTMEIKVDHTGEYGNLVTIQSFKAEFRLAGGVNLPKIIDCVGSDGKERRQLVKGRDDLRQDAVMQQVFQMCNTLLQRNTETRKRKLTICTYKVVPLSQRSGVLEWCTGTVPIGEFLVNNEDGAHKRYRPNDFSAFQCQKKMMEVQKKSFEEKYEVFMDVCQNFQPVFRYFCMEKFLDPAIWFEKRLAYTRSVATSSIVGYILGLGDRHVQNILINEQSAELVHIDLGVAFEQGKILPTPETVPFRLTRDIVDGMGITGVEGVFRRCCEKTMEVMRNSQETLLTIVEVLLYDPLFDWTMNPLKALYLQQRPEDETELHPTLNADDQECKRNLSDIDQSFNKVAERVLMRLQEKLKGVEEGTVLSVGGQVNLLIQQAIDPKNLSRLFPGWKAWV

For `CC[C@@H]1COc2c(-c3ccc(OCCCN(C)C)nc3)ccc3ncc4c(c23)n1c(=O)n4C` [Example A-188, (R)-7-(6-(3-(dimethylamino)propoxy)pyridin-3-yl)-10-ethyl-2-methyl-9,10-dihydro-8-oxa-2,4,10a-triazanaphtho[2,1,8-cde]azulen-1(2H)-one], the IC50 turned out to be 0.4 nM.
Consider `CC[C@H]1COc2c(-c3ccc(OCCCN4CCCCC4)nc3)ccc3ncc4c(c23)n1c(=O)n4C` [Example A-186, (S)-10-ethyl-2-methyl-7-(6-(3-(piperidin-1-yl)propoxy)pyridin-3-yl)-9,10-dihydro-8-oxa-2,4,10a-triazanaphtho[2,1,8-cde]azulen-1(2H)-one], for which the concentration for half-maximal inhibition (IC50) is 0.38 nM.
In the case of `C[C@H]1COc2c(-c3ccc(N4CCC(N(C)C)CC4)nc3)c(F)cc3ncc4c(c23)n1c(=O)n4C` [Example A-159, (S)-7-(6-(4-(dimethylamino)piperidin-1-yl)pyridin-3-yl)-6-fluoro-2,10-dimethyl-9,10-dihydro-8-oxa-2,4,10a-triazanaphtho[2,1,8-cde]azulen-1(2H)-one], the half-maximal inhibitory concentration (IC50) worked out at 0.92 nM.
With `CC(C)C[C@H]1COc2c(-c3ccc(OCCCN4CCCCC4)nc3)c(F)cc3ncc4c(c23)n1c(=O)n4C` [Example A-9, (S)-6-fluoro-10-isobutyl-2-methyl-7-(6-(3-(piperidin-1-yl)propoxy)pyridin-3-yl)-9,10-dihydro-8-oxa-2,4,10a-triazanaphtho[2,1,8-cde]azulen-1(2H)-one] the figure was 0.2 nM.
Take `Cn1c(=O)n2c3c4c(c(-c5ccc(OCCCN6CCCCC6)nc5)c(F)cc4ncc31)OCC21CCC1` [Example A-28, 6-fluoro-2-methyl-7-(6-(3-(piperidin-1-yl)propoxy)pyridin-3-yl)-2,9-dihydro-1H-spiro[8-oxa-2,4,10a-triazanaphtho[2,1,8-cde]azulene-10,1′-cyclobutan]-1-one]: the 50% inhibitory concentration (IC50) was determined as 0.28 nM.
Consider `C[C@H]1COc2c(-c3ccc(OCCCN(C)C)nc3)ccc3ncc4c(c23)n1c(=O)n4C` [Example A-178, (S)-7-(6-(3-(dimethylamino)propoxy)pyridin-3-yl)-2,10-dimethyl-9,10-dihydro-8-oxa-2,4,10a-triazanaphtho[2,1,8-cde]azulen-1(2H)-one], for which the half-maximal inhibitory concentration (IC50) worked out at 0.25 nM.
Turning to `Cn1c(=O)n2c3c4c(c(-c5ccc(OCCCN6CC[C@H](F)C6)nc5)c(F)cc4ncc31)OCC21CCC1` [Example A-161, (S)-6-fluoro-7-(6-(3-(3-fluoropyrrolidin-1-yl)propoxy)pyridin-3-yl)-2-methyl-2,9-dihydro-1H-spiro[8-oxa-2,4,10a-triazanaphtho[2,1,8-cde]azulene-10,1′-cyclobutan]-1-one], the half-inhibitory concentration (IC50) worked out at 0.32 nM.
As to `Cn1c(=O)n2c3c4c(c(-c5ccc(OCCCN6CCCCC6)nc5)c(F)cc4ncc31)OC[C@H]2Cc1ccccc1` [Example A-14, (R)-10-benzyl-6-fluoro-2-methyl-7-(6-(3-(piperidin-1-yl)propoxy)pyridin-3-yl)-9,10-dihydro-8-oxa-2,4,10a-triazanaphtho[2,1,8-cde]azulen-1(2H)-one], the concentration for half-maximal inhibition (IC50) was determined as 0.42 nM.
On to `CN(C)CCCOc1ccc(-c2ccc3ncc4c5c3c2OCC(C)(C)n5c(=O)n4C)cn1` [Example A-180, 7-(6-(3-(dimethylamino)propoxy)pyridin-3-yl)-2,10,10-trimethyl-9,10-dihydro-8-oxa-2,4,10a-triazanaphtho[2,1,8-cde]azulen-1(2H)-one], for which the IC50 amounted to 0.26 nM.
In the case of `CN(C)CCCOc1ccc(-c2ccc3ncc4c5c3c2OCC2(CCC2)n5c(=O)n4C)cn1` [Example A-185, 7-(6-(3-(dimethylamino)propoxy)pyridin-3-yl)-2-methyl-2,9-dihydro-1H-spiro[8-oxa-2,4,10a-triazanaphtho[2,1,8-cde]azulene-10,1′-cyclobutan]-1-one], the half-maximal inhibitory concentration (IC50) was 0.25 nM.
As to `Cn1c(=O)n2c3c4c(c(-c5ccc(OCCCN6CCCCC6)nc5)c(F)cc4ncc31)OCC2C1CC1` (centres unmarked) [Example A-27, 10-cyclopropyl-6-fluoro-2-methyl-7-(6-(3-(piperidin-1-yl)propoxy)pyridin-3-yl)-9,10-dihydro-8-oxa-2,4,10a-triazanaphtho[2,1,8-cde]azulen-1(2H)-one], the IC50 is 0.28 nM.

As a reminder, the IC50 is the concentration at which inhibition is half-maximal.
